Measured values from ChEMBL document CHEMBL2074471, “Electrogenic properties and substrate specificity of the polyspecific rat cation transporter rOCT1” (J Biol Chem, 1996).

T1: Solute carrier family 22 member 1 (Rattus norvegicus, UniProt Q63089)
T1 sequence (Q63089 whole entry): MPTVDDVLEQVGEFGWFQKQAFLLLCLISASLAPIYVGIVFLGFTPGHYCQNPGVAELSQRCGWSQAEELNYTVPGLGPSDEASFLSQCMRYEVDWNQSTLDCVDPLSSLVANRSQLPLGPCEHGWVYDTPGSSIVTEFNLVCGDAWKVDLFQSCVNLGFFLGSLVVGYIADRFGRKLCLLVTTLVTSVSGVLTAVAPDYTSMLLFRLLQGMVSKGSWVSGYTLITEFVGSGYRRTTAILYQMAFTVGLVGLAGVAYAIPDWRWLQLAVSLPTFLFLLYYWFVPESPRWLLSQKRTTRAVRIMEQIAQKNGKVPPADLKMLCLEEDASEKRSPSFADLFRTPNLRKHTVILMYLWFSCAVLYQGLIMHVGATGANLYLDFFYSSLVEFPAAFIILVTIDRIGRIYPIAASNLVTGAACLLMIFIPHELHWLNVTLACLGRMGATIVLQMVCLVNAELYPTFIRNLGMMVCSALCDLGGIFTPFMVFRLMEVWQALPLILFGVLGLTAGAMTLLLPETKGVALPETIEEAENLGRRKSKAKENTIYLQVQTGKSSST

B1: Solute carrier family 22 member 1 (Rattus norvegicus) (protein)
chain: T1 sequence (Q63089 whole entry)

What was measured:
[1] = biological target: T1, Solute carrier family 22 member 1; assay: TP_TRANSPORTER: uptake (electrogenesis) in Xenopus laevis oocytes; type: functional, cell-based; details: oocyte
[2] = substrate: CNC(=O)c1cccnc1; assay: (§1) TP_TRANSPORTER: uptake in Xenopus laevis oocytes; type: functional, cell-based, Oocyte
[3] = substrate: C[n+]1ccc(-c2ccccc2)cc1; assay: as §1; type: functional, cell-based, Oocyte
[4] = substrate: CC[N+](CC)(CC)CC; assay: cells, lysate or membranes named

Row | Molecule | Activity [1] | Km [2] [µM] | Km [3] [µM] | Km [4] [µM]
1 | CC[n+]1c(CC2C=C(C)N=C(c3ccccc3)N2C)ccc2ccccc21.[Cl-] (configuration not stated) [Cyanine-863] | substrate [+] |  |  | 
2 | CC(=O)O[C@H]1C[C@@H]2CC[C@@H]3[C@H](CC[C@@]4(C)[C@H]3C[C@H]([N+]3(C)CCCCC3)[C@@H]4OC(C)=O)[C@@]2(C)C[C@@H]1[N+]1(C)CCCCC1 [PANCURONIUM] | substrate [+] |  |  | 
3 | NCCCCNCCCN [SPERMIDINE] | substrate [+] |  |  | 
4 | NCCCNCCCCNCCCN [SPERMINE] | substrate [+] |  |  | 
5 | B1 |  | 340 | 9.6 | 35
